Laboratory results as given in patent US4933365A, “Phospholipase A2 inhibitors” (American Home Products Corporation, priority 1989, dated 1990).

How the values were obtained:
[1] = tested on: vascular cutaneous permeability induced by snake venom PLA2 (Naja mocambique mocambique PLA2); assay: reduction of vascular cutaneous permeability induced by snake venom PLA2; type: in vivo, guinea pig (male Hartley); details: for % Inhibition: standard drug
carrageenan paw edema = assay: rat carrageenan paw edema; type: in vivo, rat (male Sprague-Dawley); details: po, 3 h, read-out: Oral ED50 (95% C.L.)
Procedure: The compounds in the scope of the invention are further tested in the rat carrageenan paw edema to determine their ability to inhibit the acute inflammatory response.
This assay is carried out as follows:
[…] male Sprague-Dawley rats, in groups of 6 animals are injected subcutaneously in the right paw with 0.1 ml of 1% carrageenan at zero time. Mercury plethysmographic readings (ml) of the paw made at zero time and 3 hours later. Test compounds are suspended or dissolved in 0.5% methylcellulose and given perorally 1 hour prior to carrageenan administration.
The increase in paw volume (edema in ml.) produced by the carrageenan is measured. Paw edema is calculated (3 hour volume minus zero time volume), and percent inhibition of edema is determined. Unpaired Student's t-test is used to determine statistical significance.

[2] = tested on: synthesis of the arachidonic acid cyclooxygenase oxidation product TxB2; assay: inhibition of TxB2 synthesis (cyclooxygenase) by rat PMN; type: cell-based, rat (female Wistar); details: A23187 stimulated rat PMN
Procedure: Rat polymorphonuclear leukocytes (PMNs) are obtained from female Wistar rats (150-200 g) which receive an injection of 6% glycogen (10 ml i.p.). Rats are sacrificed 18-24 hours post injection by CO2 asphyxiation and the elicited cells are harvested by peritoneal lavage using physiological saline (0.9% NaCl). The exudate is centrifuged at 400×g for 10 minutes. The supernatant fluid is discarded and the cell pellet is resuspended to concentration of 2.0×10^7 cells/ml in HBSS containing Ca^++ and Mg^++ and 10 μM L-cysteine.
To 1 ml aliquots of cell suspension, test drugs or vehicle are added, then preincubated at 37° C. for 10 minutes. A23187 (1 μM) and [^3 H]-AA (3.0 μCi/ml) are then added and the samples are further incubated for 10 minutes. The reaction is terminated by centrifugation and pelleting cells. Supernatants are then analyzed by HPLC analysis on a 15 cm ×4.6 mm ID Supelcosil LC-18 (Supelco)(3M) column, using a two solvent system at a flow rate of 1.4 ml total flow as follows:
Injections: 150 μl of each supernatant is injected directly onto column and ^3 H arachidonic acid metabolites are monitored using an on-line radioactivity detector (Ramona, IN/US, Fairfield, N.J.).
Co-chromatography with standard [^3 H] leukotriene B4 (LTB4) in medium of stimulated PMN exposed to drug is compared to that found in medium of stimulated cells exposed to no drug, generating percent inhibition.
Results are expressed as percent inhibition at a given compound dose.
In this assay, the procedure of Example 13 is carried out as described. However, in order to determine cyclooxygenase activity, the samples are co-chromatographed with authentic reference [^3 H]--TxB2.
The results are calculated as in Example 13 and present below: […]

[3] = tested on: oxazolone-induced contact hypersensitivity in the mouse ear; assay: oxazolone-induced contact hypersensitivity in the mouse ear; type: in vivo, mouse (female Swiss Webster); details: dosed at 1 mg/ear
Procedure: The assay of this Example measures the ability of the compound in the scope of the invention to inhibit oxazolone-induced contact hypersensitiveity in the mouse ear.
The assay is carried out as follows:
Female, Swiss Webster mice (8 weeks old) are placed into groups of 6 and the abdominal area of each is shaved. The mice are sensitized to oxazolone (4-ethoxymethylene-2-phenyl-oxazol-5-one) by applying 100 μl of a 2% solution in 95% alcohol directly onto the shaved abdomen using an automatic pipette and rubbing the residual oxaxolone into the skin with a round wooden stick. Six days after sensitization each mouse is challenged by applying 20 μl if a 2% oxazolone solution in 95% alcohol to the right ear (10 μl of alcohol alone to the left ear. Compounds for topical applications are prepared in acetone and administered to the right ear 30 min after challenge or 30 min prior to and 5 h after challenge; acetone (vehicle) is applied to the left ear. Compounds for oral administration are suspended in 0.5 ml of 0.5% methyl cellulose and given ten min prior to challenge. Ear thickness of both ears is measured in mm×10^- 2 at 24 and 48 h after challenge using an Oditest caliper. Edema is calculated by subtracting the left ear thickness from the right ear thickness. Drug effects are determined by calculating the percentage change from control for each time period.

## COC(=O)C1(C(F)=CCCCOc2ccc(Cl)cc2)CO1 (stereo not drawn) [6 (fluoro-vinyl compound), 2-[5-(4-Chlorophenoxy)-1-fluoro-1-pentenyl]-2-oxiranecarboxylic acid methyl ester]
[1]
  % Inhibition, iv at 100 mg/kg: 32%

## CC(=O)Oc1ccccc1C(=O)O [Aspirin]
Carrageenan paw edema
  ED50: 145 mg/kg

## NC1=NN(c2cccc(C(F)(F)F)c2)CC1 [BW 755c]
[1]; 200 mg/kg p.o.
  % Inhibition: 65.3%

## CN(C)CCC(c1ccc(Cl)cc1)c1ccccn1 (stereo not drawn) [Chlorpheniramine]
[1]; 2 mg/kg p.o.
  % Inhibition: 45.0%

## C[C@@H]1C[C@H]2[C@@H]3CCC4=CC(=O)C=C[C@]4(C)[C@@]3(F)[C@@H](O)C[C@]2(C)[C@@]1(O)C(=O)CO [Dexamethasone]
[1]; 10 mg/kg p.o.
  % Inhibition: 49.0%

## COC(=O)C1(C(=O)CCCCOc2ccc(Cl)cc2)CO1 (stereo not drawn) [Example 6A, 2-[5-(4-Chlorophenoxy)-1-oxopentyl]-2-oxiranecarboxylic acid methyl ester]
[2]
  inhibition at 10 µM: 30%

## COC(=O)C1(C(=O)CCCCc2ccccc2)CO1 (stereo not drawn) [Example 9, 2-(5-Phenyl-1-oxopentyl)-2-oxiranecarboxylic acid methyl ester]
[2]
  inhibition at 10 µM: 1%
[3]
  % Inhibition: 22.0%

## CCOC(=O)C1(CCCCCc2ccc(Cl)cc2)CO1 (stereo not drawn) [Example 10, 2-[5-(4-Chlorophenyl)pentyl]-2-oxiranecarboxylic acid ethyl ester]
[1]
  % Inhibition, iv at 100 mg/kg: 24.1%
[2]
  inhibition at 10 µM: 4%

## COc1ccc2c(c1)c(CC(=O)O)c(C)n2C(=O)c1ccc(Cl)cc1 [Indomethacin]
[1]; 50 mg/kg p.o.
  % Inhibition: 15.0%
Carrageenan paw edema
  ED50: 3.7 mg/kg
